Measured values from ChEMBL document CHEMBL5506024, “Multitarget μ-Opioid Receptor Agonists─Neuropeptide FF Receptor Antagonists Induce Potent Antinociception with Reduced Adverse Side Effects” (J Med Chem, 2024).
Active and inactive are the calls of the source. Numbered stars: 1 amine (or outer) side, 2 acyl side, 3 side chain; on linkers, the order of the positions; unused ones are H or OH. Square brackets hold non-standard residues; d marks the D form. Peptide text beside a SMILES is read from it. * marks the point of attachment. Nva(5-(4-Bn-piperidin-1-yl)) = N[C@@H](CCCN1CCC(Cc2ccccc2)CC1)C(=O)O; X2 = O=C1[C@@H](N[*:1])Cc2ccccc2CN1CCCC(=O)[*:2]; X1 = O=C1[C@@H](N[*:1])Cc2ccccc2CN1CCC(=O)[*:2]; Dmt = Cc1cc(O)cc(C)c1C[C@H](N)C(=O)O; Nicotinoyl = O=C(c1cccnc1)*; dOrn = NCCC[C@@H](N)C(=O)O; dNMeA = CN[C@H](C)C(=O)O

Experiments:
Mus musculus [1] = test: Antinociceptive activity in mouse at 10 mg/kg, sc administered daily and measured on day 8; type: functional, organism-based
Mus musculus [2] = test: Antinociceptive activity in mouse assessed as basal nociceptive threshold at 10 mg/kg, sc administered daily and measured on day 2 to 7; type: functional, organism-based
[3] = Induction of naltrexone-precipitated withdrawal syndrome in sc dosed C57BL/6N mouse assessed as somatic signs administered for 8 days followed by naltrexone addition on day 9 after 2 hrs post last dose and measured after 30 mins; type: toxicity, organism-based; settings: in vivo, 216.5 h, time 12990 min
[4] = Induction of naltrexone-precipitated withdrawal syndrome in sc dosed C57BL/6N mouse assessed as vegetative signs administered for 8 days followed by naltrexone addition on day 9 after 2 hrs post last dose and measured after 30 mins; type: toxicity, organism-based; settings: in vivo, 216.5 h, time 12990 min
[5] = Toxicity in sc dosed C57BL/6N mouse assessed as induction of respiratory depression by measuring decrease in pulmonary rate by plethysmography; type: organism-based; settings: in vivo
Mu-type opioid receptor [6] = molecular target: T1, Mu-type opioid receptor (Homo sapiens, UniProt P35372); test: Agonist activity at human MOP expressed in HEK293 cells coexpressing GloSensor-20F assessed as inhibition of forskolin-induced cAMP accumulation; type: functional, cell-based
T1 sequence (P35372 whole entry): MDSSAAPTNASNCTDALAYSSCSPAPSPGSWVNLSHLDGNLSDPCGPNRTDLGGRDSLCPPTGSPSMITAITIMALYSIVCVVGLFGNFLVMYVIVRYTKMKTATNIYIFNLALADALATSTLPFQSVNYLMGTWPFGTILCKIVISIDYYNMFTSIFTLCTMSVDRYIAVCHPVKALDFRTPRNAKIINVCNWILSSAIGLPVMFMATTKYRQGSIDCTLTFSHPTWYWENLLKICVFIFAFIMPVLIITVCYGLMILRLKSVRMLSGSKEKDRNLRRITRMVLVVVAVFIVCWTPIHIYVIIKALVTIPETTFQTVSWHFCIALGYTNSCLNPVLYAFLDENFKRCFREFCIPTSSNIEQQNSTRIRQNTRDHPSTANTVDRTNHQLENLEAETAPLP

Mu-type opioid receptor [7] = molecular target: T1, Mu-type opioid receptor; test: Agonist activity at human MOP expressed in HEK293 cells coexpressing GloSensor-20F assessed as inhibition of forskolin-induced cAMP accumulation relative to control; type: functional, cell-based; settings: filed as agonist
Mu-type opioid receptor [8] = molecular target: T1, Mu-type opioid receptor; test: Agonist activity at human Rluc8-tagged MOP expressed in HEK293 cells coexpressing eYFP-tagged beta-arrestin-2 assessed as beta-arrestin-2 recruitment incubated for 5 mins by luminometer analysis; type: functional, cell-based
[9] = molecular target: T2, Neuropeptide FF receptor 1 (Homo sapiens, UniProt Q9GZQ6); test: Displacement of [125I]-1DMeNPFF from human NPFFR1 expressed in CHO cell membrane at 0.5 uM incubated for 1 hr by Topcount counting method relative to control; type: cell membranes
T2 sequence (Q9GZQ6 whole entry): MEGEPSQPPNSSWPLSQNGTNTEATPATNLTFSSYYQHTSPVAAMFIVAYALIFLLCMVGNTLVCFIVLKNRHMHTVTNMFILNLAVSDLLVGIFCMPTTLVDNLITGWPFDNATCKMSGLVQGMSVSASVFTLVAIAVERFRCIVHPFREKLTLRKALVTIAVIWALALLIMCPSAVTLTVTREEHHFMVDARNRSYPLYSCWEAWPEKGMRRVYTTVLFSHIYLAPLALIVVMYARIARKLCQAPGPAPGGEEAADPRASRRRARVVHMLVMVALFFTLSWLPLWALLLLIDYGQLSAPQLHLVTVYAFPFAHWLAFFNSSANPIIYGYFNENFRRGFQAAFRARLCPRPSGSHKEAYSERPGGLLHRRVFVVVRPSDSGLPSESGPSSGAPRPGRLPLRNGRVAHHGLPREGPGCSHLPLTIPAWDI

[10] = molecular target: T2, Neuropeptide FF receptor 1; test: Antagonist activity at human NPFFR1 expressed in CHO cell membrane assessed as inhibition of NPVF induced cAMP response at 5 uM incubated for 1 hr by Topcount counting method relative to control; type: functional, cell membranes; set-up: scale not given: the % may be the effect or the level left
[11] = molecular target: T3, Neuropeptide FF receptor 2 (Homo sapiens, UniProt Q9Y5X5); test: Displacement of [125I]-1DMeNPFF from human NPFFR2 expressed in CHO cell membrane at 0.05 uM incubated for 1 hr by Topcount counting method relative to control; type: cell membranes; settings: filed as antagonist
T3 sequence (Q9Y5X5 whole entry): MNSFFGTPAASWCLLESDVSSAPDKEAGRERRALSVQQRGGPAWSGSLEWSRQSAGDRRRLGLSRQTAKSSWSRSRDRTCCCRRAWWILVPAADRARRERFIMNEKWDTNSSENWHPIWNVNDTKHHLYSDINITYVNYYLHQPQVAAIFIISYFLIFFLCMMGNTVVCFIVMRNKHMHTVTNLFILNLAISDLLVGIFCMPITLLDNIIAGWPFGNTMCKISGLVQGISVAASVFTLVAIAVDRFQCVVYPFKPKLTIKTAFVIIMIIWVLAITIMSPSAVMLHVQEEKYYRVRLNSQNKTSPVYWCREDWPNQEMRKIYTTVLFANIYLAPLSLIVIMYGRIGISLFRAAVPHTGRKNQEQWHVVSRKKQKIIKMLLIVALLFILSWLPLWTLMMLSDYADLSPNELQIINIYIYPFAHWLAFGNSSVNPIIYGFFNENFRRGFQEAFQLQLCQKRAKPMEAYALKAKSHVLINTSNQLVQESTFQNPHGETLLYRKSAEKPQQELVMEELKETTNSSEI

[12] = molecular target: T3, Neuropeptide FF receptor 2; test: Antagonist activity at human NPFFR2 expressed in CHO cell membrane assessed as inhibition of NPVF induced cAMP response at 5 uM incubated for 1 hr by Topcount counting method relative to control; type: functional, cell membranes; set-up: scale not given: the % may be the effect or the level left
Mu-type opioid receptor [13] = molecular target: T1, Mu-type opioid receptor; test: Agonist activity at human Rluc8-tagged MOP expressed in HEK293 cells coexpressing eYFP-tagged beta-arrestin-2 assessed as beta-arrestin-2 recruitment incubated for 5 mins by luminometer analysis relative to control; type: functional, cell-based
[14] = molecular target: Kappa-type opioid receptor (Homo sapiens, UniProt P41145); test: Antagonist activity at human KOR expressed in HEK293 cells assessed as forskolin-induced cAMP accumulation in presence of IBMX; type: functional, cell-based; settings: filed as antagonist
Chain of Kappa-type opioid receptor (P41145 whole entry): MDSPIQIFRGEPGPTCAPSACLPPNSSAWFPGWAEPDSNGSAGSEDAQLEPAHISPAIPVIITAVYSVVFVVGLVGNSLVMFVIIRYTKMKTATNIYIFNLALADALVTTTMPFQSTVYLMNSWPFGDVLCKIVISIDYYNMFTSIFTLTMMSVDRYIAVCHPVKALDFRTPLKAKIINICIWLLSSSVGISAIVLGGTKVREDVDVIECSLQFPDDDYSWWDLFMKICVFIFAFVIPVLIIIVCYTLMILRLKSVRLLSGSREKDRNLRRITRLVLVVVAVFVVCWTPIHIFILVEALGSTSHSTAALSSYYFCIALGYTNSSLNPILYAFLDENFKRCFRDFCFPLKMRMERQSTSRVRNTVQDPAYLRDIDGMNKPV

[15] = molecular target: Nociceptin receptor (Homo sapiens) (UniProt P41146); test: Antagonist activity at human NOR expressed in HEK293 cells assessed as forskolin-induced cAMP accumulation in presence of IBMX; type: functional, cell-based; settings: filed as antagonist
Chain of Nociceptin receptor (Homo sapiens) (P41146 whole entry): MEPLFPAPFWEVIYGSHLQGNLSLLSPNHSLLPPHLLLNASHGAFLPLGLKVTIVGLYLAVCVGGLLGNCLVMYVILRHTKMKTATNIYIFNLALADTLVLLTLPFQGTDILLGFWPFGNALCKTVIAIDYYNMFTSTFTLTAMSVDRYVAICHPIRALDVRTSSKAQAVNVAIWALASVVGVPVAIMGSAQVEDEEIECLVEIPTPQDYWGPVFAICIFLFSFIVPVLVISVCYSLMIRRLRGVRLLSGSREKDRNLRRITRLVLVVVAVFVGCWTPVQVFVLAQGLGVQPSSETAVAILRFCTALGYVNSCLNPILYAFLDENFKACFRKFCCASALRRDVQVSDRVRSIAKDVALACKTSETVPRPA

[16] = Cmax in mouse at 10 mg/kg, sc measured upto 24 hrs by LC-MS/MS analysis; type: ADME, organism-based; settings: in vivo
[17] = Tmax in mouse at 10 mg/kg, sc measured upto 24 hrs by LC-MS/MS analysis; type: ADME, organism-based; settings: in vivo
[18] = Half life in mouse at 10 mg/kg, sc measured upto 24 hrs by LC-MS/MS analysis; type: ADME, organism-based; settings: in vivo
[19] = Drug concentration in mouse plasma at 10 mg/kg, sc measured after 2 hrs by LC-MS/MS analysis; type: ADME, organism-based
Mus musculus [20] = test: Antinociceptive activity in mouse at 4.2 umol/kg, sc administered chronically and measured on day 1; type: functional, organism-based; settings: dose 4.2 µmol/kg
Mus musculus [21] = test: Antinociceptive activity in mouse at 4.2 umol/kg, sc administered chronically and measured on day 8; type: functional, organism-based; settings: dose 4.2 µmol/kg
Mus musculus [22] = test: Antinociceptive activity in mouse at 4.2 umol/kg, sc administered daily and measured on day 1 and 8; type: functional, organism-based; settings: dose 4.2 µmol/kg
[23] = Induction of naltrexone-precipitated withdrawal syndrome in sc dosed C57BL/6N mouse assessed as paw tremor administered for 8 days followed by naltrexone addition on day 9 after 2 hrs post last dose and measured after 30 mins; type: toxicity, organism-based; settings: in vivo, 216.5 h, time 12990 min
[24] = Induction of naltrexone-precipitated withdrawal syndrome in sc dosed C57BL/6N mouse assessed as wet dog shake counts administered for 8 days followed by naltrexone addition on day 9 after 2 hrs post last dose and measured after 30 mins; type: toxicity, organism-based; settings: in vivo, 216.5 h, time 12990 min

Row | Structure (SMILES) | EC50 (Mu-type opioid receptor [6]) [nM] | Emax (Mu-type opioid receptor [7]) [%] | Activity ([9]; filed as antagonist) [%] | Activity [10] [%] | Activity [11] [%] | Activity ([12]; filed as antagonist) [%] | Emax (Mu-type opioid receptor [13]) [%] | EC50 (Mu-type opioid receptor [8]; read-out: EC50) [nM] | Activity ([10]; filed as antagonist) [%] | further results
1 | COc1ccsc1CNCC[C@@]1(c2ccccn2)CCOC2(CCCC2)C1 [OLICERIDINE] |  |  |  |  |  |  |  |  |  | Activity (Mus musculus [1]): inactive; Activity (Mus musculus [2]): inactive; Activity [3]: Toxic; Activity [4]: Toxic; Activity [5]: Dose-Dependent Effect
2 | Cc1cc(O)cc(C)c1C[C@H](N)C(=O)N(C)[C@H](C)C(=O)N[C@H]1Cc2ccccc2CN(CCCC(=O)N[C@@H](CCCN2CCC(Cc3ccccc3)CC2)C(=O)N[C@@H](Cc2ccccc2)C(N)=O)C1=O (H-[Dmt][dNMeA][X2][Nva(5-(4-Bn-piperidin-1-yl))]F-NH2) | 10.6 | 66 | 57 | 12 | 65 | 49 |  |  |  | EC50 (Mu-type opioid receptor [8]; hek293): Not Active
3 | Cc1cc(O)cc(C)c1C[C@H](N)C(=O)N[C@H](CCCNC(=N)N)C(=O)N[C@H]1Cc2c(ccc3ccccc23)CN(CC(=O)N[C@@H](CCCN2CCC(Cc3ccccc3)CC2)C(=O)N[C@@H](Cc2ccccc2)C(N)=O)C1=O |  | 90 |  | 22 | 96 | 91 | 22 |  |  | Activity [9]: 35%
4 | Cc1cc(O)cc(C)c1C[C@H](N)C(=O)N[C@H](CCCNC(=N)N)C(=O)N[C@H]1Cc2ccccc2CN(CCC(=O)N[C@@H](CCCN2CCC(Cc3ccccc3)CC2)C(=O)N[C@@H](Cc2ccccc2)C(N)=O)C1=O | 9.3 | 91 | 80 |  | 83 | 54 |  | 125 | 62 | Emax (Mu-type opioid receptor [13]; filed as agonist): 42%; Activity [14]: Active; Activity [15]: Active; Cmax [16]: 984 nM; Tmax [17]: 2.67 h; half-life [18]: 3.08 h; concentration at 2 h [19]: 937 nM; Activity (Mus musculus [20]): Active; Activity (Mus musculus [21]): inactive; Activity (Mus musculus [22]): Active; Activity [23]: Non-Toxic; Activity [24]: Non-Toxic
5 | Cc1cc(O)cc(C)c1C[C@H](N)C(=O)N[C@H](CCCCNC(=O)c1cccnc1)C(=O)N[C@H]1Cc2ccccc2CN(CCC(=O)N[C@@H](CCCN2CCC(Cc3ccccc3)CC2)C(=O)N[C@@H](Cc2ccccc2)C(N)=O)C1=O (H-[Dmt][dK](Nicotinoyl)[X1][Nva(5-(4-Bn-piperidin-1-yl))]F-NH2) |  | 92 | 74 | 33 | 70 | 59 | 16 | 12 |  | 
6 | Cc1cc(O)cc(C)c1C[C@H](N)C(=O)N(C)[C@H](C)C(=O)N[C@H]1Cc2ccccc2CN(CCC(=O)N[C@@H](CCCN2CCC(Cc3ccccc3)CC2)C(=O)N[C@@H](Cc2ccccc2)C(N)=O)C1=O (H-[Dmt][dNMeA][X1][Nva(5-(4-Bn-piperidin-1-yl))]F-NH2) |  | 64 | 43 |  | 48 | 45 | 12 |  | 75 | 
7 | Cc1cc(O)cc(C)c1C[C@H](N)C(=O)N[C@H](CCCNC(=N)N)C(=O)N[C@H]1Cc2c(ccc3ccccc23)CN(CC(=O)N[C@@H](CCCN2CCC(Cc3ccccc3)CC2)C(=O)N[C@H](C(N)=O)C(C)C)C1=O |  | 102 | 87 |  | 77 | 77 | 22 |  | 51 | 
8 | Cc1cc(O)cc(C)c1C[C@H](N)C(=O)N[C@H](CCCNC(=N)N)C(=O)N[C@H]1Cc2c(ccc3ccccc23)CN(CC(=O)N[C@@H](CCCN2CCC(Cc3ccccc3)CC2)C(=O)N[C@@H](Cc2c[nH]c3ccccc23)C(N)=O)C1=O | 10.5 | 65 | 68 |  | 84 | 83 |  |  | 62 | EC50 (Mu-type opioid receptor [8]; hek293): Not Active
9 | Cc1cc(O)cc(C)c1C[C@H](N)C(=O)N[C@H](CCCN)C(=O)N[C@H]1Cc2ccccc2CN(CCC(=O)N[C@@H](CCCN2CCC(Cc3ccccc3)CC2)C(=O)N[C@@H](Cc2ccccc2)C(N)=O)C1=O (H-[Dmt][dOrn][X1][Nva(5-(4-Bn-piperidin-1-yl))]F-NH2) | 34 | 78 | 45 | 22 | 55 |  | 20 | 2350 |  | Activity [12]: 37%
